Source: ChEMBL document CHEMBL1201862, “PubChem BioAssay data set” (2004)
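96-well plates; 48 h exposure; 5 concentrations. Endpoints by linear interpolation between flanking doses. Not reached: highest tested concentration assigned. Here, GI50 denotes the concentration required for 50% inhibition of growth.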 Active and inactive are the calls of the source. Cut-off read from the data, not from the text of the source: active = GI50 up to about 1.1 µM and inactive = higher.

Columns and labels:
Experiment in all cases: NCI anticancer screen, dose series, 48 h
CCRF-CEM = tested on: CCRF-CEM
MDA-N = tested on: MDA-N
NCI-H226 = tested on: NCI-H226
UACC-62 = tested on: UACC-62
OVCAR-3 = tested on: OVCAR-3
SNB-75 = tested on: SNB-75
786-0 = tested on: 786-0
SW-620 = tested on: SW-620
MOLT-4 = tested on: MOLT-4
SNB-19 = tested on: SNB-19
A549 = tested on: A549
TK-10 = tested on: TK-10
DU-145 = tested on: DU-145
SF-295 = tested on: SF-295
KM12 = tested on: KM12
A498 = tested on: A498
SF-539 = tested on: SF-539
HCT-116 = tested on: HCT-116
SK-OV-3 = tested on: SK-OV-3
PC-3 = tested on: PC-3

Compound | GI50 (CCRF-CEM) | GI50 (MDA-N) | GI50 (NCI-H226) | GI50 (UACC-62) | GI50 (OVCAR-3) | GI50 (SNB-75) | GI50 (786-0) | GI50 (SW-620) | GI50 (MOLT-4) | GI50 (SNB-19) | GI50 (A549) | GI50 (TK-10) | GI50 (DU-145) | GI50 (SF-295) | GI50 (KM12) | GI50 (A498) | GI50 (SF-539) | GI50 (HCT-116) | GI50 (SK-OV-3) | GI50 (PC-3)
CN(C(=O)c1cccs1)C(=S)N1CCN(c2ccccc2)CC1 | > 100 µM (inactive) | > 100 µM (inactive) | > 100 µM (inactive) | > 100 µM (inactive) | > 100 µM (inactive) | > 100 µM (inactive) | > 100 µM (inactive) | > 100 µM (inactive) | 51.8 µM (inactive) | > 100 µM (inactive) | > 100 µM (inactive) | > 100 µM (inactive) | > 100 µM (inactive) | > 100 µM (inactive) | > 100 µM (inactive) | – | – | – | – | –
CCN(CC)C(=O)Cn1c2ccccc2[n+]2cc(N)ccc12 | > 100 µM (inactive) | – | > 100 µM (inactive) | > 100 µM (inactive) | > 100 µM (inactive) | > 100 µM (inactive) | > 100 µM (inactive) | > 100 µM (inactive) | > 100 µM (inactive) | > 100 µM (inactive) | > 100 µM (inactive) | > 100 µM (inactive) | > 100 µM (inactive) | > 100 µM (inactive) | > 100 µM (inactive) | > 100 µM (inactive) | > 100 µM (inactive) | > 100 µM (inactive) | > 100 µM (inactive) | > 100 µM (inactive)
O=C(Nc1cc2c(=O)oc3ccccc3c2oc1=O)c1cccnc1 | > 100 µM (inactive) | > 100 µM (inactive) | > 100 µM (inactive) | > 100 µM (inactive) | > 100 µM (inactive) | 62.4 µM (inactive) | > 100 µM (inactive) | > 100 µM (inactive) | > 100 µM (inactive) | 73.5 µM (inactive) | > 100 µM (inactive) | > 100 µM (inactive) | > 100 µM (inactive) | > 100 µM (inactive) | > 100 µM (inactive) | – | > 100 µM (inactive) | > 100 µM (inactive) | > 100 µM (inactive) | > 100 µM (inactive)
COc1ccc(OC)c(C2CCCc3c2cnc2nc(N)nc(N)c32)c1 (centres undefined) | – | < 0.01 µM (active) | > 100 µM (inactive) | < 0.01 µM (active) | – | 0.247 µM (active) | < 0.01 µM (active) | – | < 0.0168 µM (active) | 0.0703 µM (active) | < 0.01 µM (active) | 0.0217 µM (active) | 0.0132 µM (active) | < 0.0143 µM (active) | 0.0716 µM (active) | – | < 0.0119 µM (active) | < 0.01 µM (active) | – | > 71.1 µM (inactive)
COc1ccc2nc(/C(N)=C\C#N)ccc2c1 | 40.3 µM (inactive) | 45.3 µM (inactive) | > 100 µM (inactive) | 6.58 µM (inactive) | 31.6 µM (inactive) | > 100 µM (inactive) | 34.7 µM (inactive) | > 100 µM (inactive) | 23.9 µM (inactive) | > 100 µM (inactive) | 47.2 µM (inactive) | 59.2 µM (inactive) | 92.5 µM (inactive) | 93.8 µM (inactive) | 52.1 µM (inactive) | – | 46 µM (inactive) | 20.3 µM (inactive) | – | 43.7 µM (inactive)
Brc1ccc(/N=N/c2ccc3ccccc3n2)cc1 | > 100 µM (inactive) | 31.8 µM (inactive) | 10.6 µM (inactive) | 15.6 µM (inactive) | – | 14.2 µM (inactive) | 14.2 µM (inactive) | 82.6 µM (inactive) | – | 15.9 µM (inactive) | 46.9 µM (inactive) | 28 µM (inactive) | > 100 µM (inactive) | 24.8 µM (inactive) | 62.2 µM (inactive) | – | 22.2 µM (inactive) | 12.9 µM (inactive) | 22.9 µM (inactive) | 22 µM (inactive)
CC1=NOC2(C1)/C(=N/O)CCC/C2=N\O (centres undefined) | > 100 µM (inactive) | > 100 µM (inactive) | > 100 µM (inactive) | > 100 µM (inactive) | > 100 µM (inactive) | > 100 µM (inactive) | > 100 µM (inactive) | > 100 µM (inactive) | > 100 µM (inactive) | > 100 µM (inactive) | > 100 µM (inactive) | > 100 µM (inactive) | – | > 100 µM (inactive) | > 100 µM (inactive) | – | > 100 µM (inactive) | > 100 µM (inactive) | > 100 µM (inactive) | > 100 µM (inactive)
Cc1cc(S(=O)(=O)N2CCNNC2=O)c(S)cc1Cl | 37 µM (inactive) | > 100 µM (inactive) | > 100 µM (inactive) | > 100 µM (inactive) | > 100 µM (inactive) | > 100 µM (inactive) | 19.9 µM (inactive) | 36.9 µM (inactive) | 31.6 µM (inactive) | > 100 µM (inactive) | 56.4 µM (inactive) | > 100 µM (inactive) | > 100 µM (inactive) | > 100 µM (inactive) | > 100 µM (inactive) | > 100 µM (inactive) | 37 µM (inactive) | – | – | > 100 µM (inactive)
O=S1(=O)OCCOS(=O)(=O)C1(F)Br | > 100 µM (inactive) | > 100 µM (inactive) | > 100 µM (inactive) | > 100 µM (inactive) | > 100 µM (inactive) | > 100 µM (inactive) | > 100 µM (inactive) | > 100 µM (inactive) | > 100 µM (inactive) | > 100 µM (inactive) | > 100 µM (inactive) | > 100 µM (inactive) | > 100 µM (inactive) | > 100 µM (inactive) | > 100 µM (inactive) | – | > 100 µM (inactive) | > 100 µM (inactive) | > 100 µM (inactive) | > 100 µM (inactive)
Cc1nc(N)c(N2CCN(C(=O)O)CC2)c(O)n1 | > 100 µM (inactive) | > 100 µM (inactive) | > 100 µM (inactive) | – | > 100 µM (inactive) | > 100 µM (inactive) | > 100 µM (inactive) | > 100 µM (inactive) | > 100 µM (inactive) | > 100 µM (inactive) | > 100 µM (inactive) | > 100 µM (inactive) | > 100 µM (inactive) | > 100 µM (inactive) | > 100 µM (inactive) | > 100 µM (inactive) | > 100 µM (inactive) | > 100 µM (inactive) | – | > 100 µM (inactive)
CCCC(=O)OC1=C(c2ccccc2)Sc2ccccc2-n2cccc21 | > 10 µM (inactive) | > 10 µM (inactive) | – | > 10 µM (inactive) | – | > 10 µM (inactive) | > 10 µM (inactive) | > 10 µM (inactive) | > 10 µM (inactive) | – | > 10 µM (inactive) | > 10 µM (inactive) | > 10 µM (inactive) | > 10 µM (inactive) | > 10 µM (inactive) | – | – | – | > 10 µM (inactive) | > 10 µM (inactive)
O=c1c(Cc2ccccc2)c(-c2ccccc2)[nH]n1C1=NCCN1 | 16.7 µM (inactive) | 38.5 µM (inactive) | 46 µM (inactive) | 32.2 µM (inactive) | 24.4 µM (inactive) | 22 µM (inactive) | 37.3 µM (inactive) | 38.6 µM (inactive) | 35.5 µM (inactive) | 76.4 µM (inactive) | 40.5 µM (inactive) | 37.6 µM (inactive) | – | 43.6 µM (inactive) | 61 µM (inactive) | > 100 µM (inactive) | 58.1 µM (inactive) | 24.6 µM (inactive) | > 100 µM (inactive) | 36.8 µM (inactive)
